Measured values from PubChem BioAssay AID1963435 (Molecular Pharmacology Branch, DTP, NCI, 2024).

Tested on: PANC-1 complex spheroid growth, percent test/control
Assay: Anticancer human tumor PANC-1 cell line growth inhibition [Asc];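 note: spheroids exposed to agents for 7 days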;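 for viability, T/C: percent viability relative to DMSO vehicle wells taken as 100%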
Details: for IC50: curve of first compound; for viability, T/C: stronger effect = lower value
Outline: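 Complex spheroids combining tumor cells with HUVEC endothelial cells and human MSCs, at 37 degrees C, 5% CO2; agents tested alone or combined, half-log dilutions from at or near clinical Cmax, or 10 microM if Cmax unknown.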

[1] = second compound 0.0316 µM, first compound 0.0316 µM
[2] = second compound 0.0316 µM, first compound 0.1 µM
[3] = second compound 0.1 µM, first compound 0.0316 µM
[4] = second compound 0.1 µM, first compound 0.1 µM
[5] = second compound 0.316 µM, first compound 0.0316 µM
[6] = second compound 0.316 µM, first compound 0.1 µM
[7] = second compound 1 µM, first compound 0.0316 µM
[8] = second compound 1 µM, first compound 0.1 µM
[9] = second compound 3.16 µM, first compound 0.0316 µM
[10] = second compound 3.16 µM, first compound 0.1 µM
[11] = second compound 10 µM, first compound 0.0316 µM
[12] = second compound 10 µM, first compound 0.1 µM

For Cc1nc(N2CCC3(CC2)COC(C)C3N)c(CO)nc1Sc1ccnc(N)c1Cl (stereo unspecified) + CNC(C)C(=O)NC1CN(S(=O)(=O)c2cccc(S(=O)(=O)N3CCC4CCC(C(=O)NC(c5ccccc5)c5ccccc5)N4C(=O)C(NC(=O)C(C)NC)C3)c2)CCC2CCC(C(=O)NC(c3ccccc3)c3ccccc3)N2C1=O, the IC50 (second compound 0.00316 µM) was greater than 3 µM, the IC50 (second compound 0.01 µM) was greater than 3 µM and the IC50 (second compound 0.0316 µM) was greater than 3 µM. The IC50 (second compound 0.1 µM) was greater than 3 µM, the IC50 (second compound 0.316 µM) was greater than 3 µM and the IC50 (second compound 1 µM) was greater than 3 µM. For the same compound, the viability, T/C (second compound 0.00316 µM, first compound 0.00949 µM) was 94.8%, the viability, T/C (second compound 0.00316 µM, first compound 0.03 µM) was 85% and the viability, T/C (second compound 0.00316 µM, first compound 0.0949 µM) was 96.7%. For the same compound, the viability, T/C (second compound 0.00316 µM, first compound 0.3 µM) was 84.3%, the viability, T/C (second compound 0.00316 µM, first compound 0.949 µM) was 87.7% and the viability, T/C (second compound 0.00316 µM, first compound 3 µM) was 87.1%. The viability, T/C (second compound 0.01 µM, first compound 0.00949 µM) was 91.1%, the viability, T/C (second compound 0.01 µM, first compound 0.03 µM) was 82.6% and the viability, T/C (second compound 0.01 µM, first compound 0.0949 µM) was 79.7%. It also gave a viability, T/C (second compound 0.01 µM, first compound 0.3 µM) of 89.4%, a viability, T/C (second compound 0.01 µM, first compound 0.949 µM) of 85.8% and a viability, T/C (second compound 0.01 µM, first compound 3 µM) of 95.1%. It also gave a viability, T/C (second compound 0.0316 µM, first compound 0.00949 µM) of 93.4%, a viability, T/C (second compound 0.0316 µM, first compound 0.03 µM) of 79.9% and a viability, T/C (second compound 0.0316 µM, first compound 0.0949 µM) of 92.8%. For the same compound, the viability, T/C (second compound 0.0316 µM, first compound 0.3 µM) was 86.3%, the viability, T/C (second compound 0.0316 µM, first compound 0.949 µM) was 87.6% and the viability, T/C (second compound 0.0316 µM, first compound 3 µM) was 78.9%. For the same compound, the viability, T/C (second compound 0.1 µM, first compound 0.00949 µM) was 85.3%, the viability, T/C (second compound 0.1 µM, first compound 0.03 µM) was 93% and the viability, T/C (second compound 0.1 µM, first compound 0.0949 µM) was 90%. The viability, T/C (second compound 0.1 µM, first compound 0.3 µM) was 83.8%, the viability, T/C (second compound 0.1 µM, first compound 0.949 µM) was 90.9% and the viability, T/C (second compound 0.1 µM, first compound 3 µM) was 89.5%. For the same compound, the viability, T/C (second compound 0.316 µM, first compound 0.00949 µM) was 89.5%, the viability, T/C (second compound 0.316 µM, first compound 0.03 µM) was 84.1% and the viability, T/C (second compound 0.316 µM, first compound 0.0949 µM) was 86.7%. The viability, T/C (second compound 0.316 µM, first compound 0.3 µM) was 84.4%, the viability, T/C (second compound 0.316 µM, first compound 0.949 µM) was 83.4% and the viability, T/C (second compound 0.316 µM, first compound 3 µM) was 81.2%. The viability, T/C (second compound 1 µM, first compound 0.00949 µM) was 86.5%, the viability, T/C (second compound 1 µM, first compound 0.03 µM) was 89.8% and the viability, T/C (second compound 1 µM, first compound 0.0949 µM) was 82.6%. For the same compound, the viability, T/C (second compound 1 µM, first compound 0.3 µM) was 82.7%, the viability, T/C (second compound 1 µM, first compound 0.949 µM) was 75.6% and the viability, T/C (second compound 1 µM, first compound 3 µM) was 85.9%.
Cn1ncnc1[C@H]1c2n[nH]c(=O)c3cc(F)cc(c23)N[C@@H]1c1ccc(F)cc1 + Cc1c(S(C)(=O)=O)c(-c2cc(F)cc(N3CCN(c4ccc(NS(=O)(=O)c5ccc(NC(CCN6CCC(C(=O)OCCCP(=O)(O)O)CC6)CSc6ccccc6)c(S(=O)(=O)C(F)(F)F)c5)cc4)CC3)c2)c(-c2ccc(Cl)cc2)n1C(C)C was tested, and the IC50 (second compound 0.0316 µM) was greater than 0.1 µM, the IC50 (second compound 0.1 µM) was greater than 0.1 µM and the IC50 (second compound 0.316 µM) was greater than 0.1 µM. The IC50 (second compound 1 µM) was greater than 0.1 µM, the IC50 (second compound 3.16 µM) was greater than 0.1 µM and the IC50 (second compound 10 µM) was greater than 0.1 µM. It also gave a viability, T/C (second compound 0.0316 µM, first compound 0.000316 µM) of 101%, a viability, T/C (second compound 0.0316 µM, first compound 0.001 µM) of 88.4% and a viability, T/C (second compound 0.0316 µM, first compound 0.00316 µM) of 98.5%. For the same compound, the viability, T/C (second compound 0.0316 µM, first compound 0.01 µM) was 102%, the viability, T/C [1] was 110% and the viability, T/C [2] was 101%. The viability, T/C (second compound 0.1 µM, first compound 0.000316 µM) was 96.7%, the viability, T/C (second compound 0.1 µM, first compound 0.001 µM) was 103% and the viability, T/C (second compound 0.1 µM, first compound 0.00316 µM) was 93.5%. The viability, T/C (second compound 0.1 µM, first compound 0.01 µM) was 108%, the viability, T/C [3] was 108% and the viability, T/C [4] was 103%. It also gave a viability, T/C (second compound 0.316 µM, first compound 0.000316 µM) of 109%, a viability, T/C (second compound 0.316 µM, first compound 0.001 µM) of 108% and a viability, T/C (second compound 0.316 µM, first compound 0.00316 µM) of 106%. For the same compound, the viability, T/C (second compound 0.316 µM, first compound 0.01 µM) was 106%, the viability, T/C [5] was 104% and the viability, T/C [6] was 110%. For the same compound, the viability, T/C (second compound 1 µM, first compound 0.000316 µM) was 105%, the viability, T/C (second compound 1 µM, first compound 0.001 µM) was 99.3% and the viability, T/C (second compound 1 µM, first compound 0.00316 µM) was 105%. It also gave a viability, T/C (second compound 1 µM, first compound 0.01 µM) of 106%, a viability, T/C [7] of 103% and a viability, T/C [8] of 109%. The viability, T/C (second compound 3.16 µM, first compound 0.000316 µM) was 105%, the viability, T/C (second compound 3.16 µM, first compound 0.001 µM) was 102% and the viability, T/C (second compound 3.16 µM, first compound 0.00316 µM) was 107%. It also gave a viability, T/C (second compound 3.16 µM, first compound 0.01 µM) of 114%, a viability, T/C [9] of 112% and a viability, T/C [10] of 93.5%. For the same compound, the viability, T/C (second compound 10 µM, first compound 0.000316 µM) was 160%, the viability, T/C (second compound 10 µM, first compound 0.001 µM) was 176% and the viability, T/C (second compound 10 µM, first compound 0.00316 µM) was 147%. For the same compound, the viability, T/C (second compound 10 µM, first compound 0.01 µM) was 167%, the viability, T/C [11] was 169% and the viability, T/C [12] was 139%.
Work on O=C(c1cc(Cc2n[nH]c(=O)c3ccccc23)ccc1F)N1CCN(C(=O)C2CC2)CC1 + Cc1c(S(C)(=O)=O)c(-c2cc(F)cc(N3CCN(c4ccc(NS(=O)(=O)c5ccc(NC(CCN6CCC(C(=O)OCCCP(=O)(O)O)CC6)CSc6ccccc6)c(S(=O)(=O)C(F)(F)F)c5)cc4)CC3)c2)c(-c2ccc(Cl)cc2)n1C(C)C yielded an IC50 (second compound 0.0316 µM) greater than 10 µM, an IC50 (second compound 0.1 µM) greater than 10 µM and an IC50 (second compound 0.316 µM) greater than 10 µM. For the same compound, the IC50 (second compound 1 µM) was greater than 10 µM, the IC50 (second compound 3.16 µM) was greater than 10 µM and the IC50 (second compound 10 µM) was greater than 10 µM. It also gave a viability, T/C [1] of 106%, a viability, T/C [2] of 104% and a viability, T/C (second compound 0.0316 µM, first compound 0.316 µM) of 107%. It also gave a viability, T/C (second compound 0.0316 µM, first compound 1 µM) of 107%, a viability, T/C (second compound 0.0316 µM, first compound 3.16 µM) of 99% and a viability, T/C (second compound 0.0316 µM, first compound 10 µM) of 93.7%. The viability, T/C [3] was 89%, the viability, T/C [4] was 107% and the viability, T/C (second compound 0.1 µM, first compound 0.316 µM) was 107%. It also gave a viability, T/C (second compound 0.1 µM, first compound 1 µM) of 103%, a viability, T/C (second compound 0.1 µM, first compound 3.16 µM) of 117% and a viability, T/C (second compound 0.1 µM, first compound 10 µM) of 95.5%. For the same compound, the viability, T/C [5] was 102%, the viability, T/C [6] was 103% and the viability, T/C (second compound 0.316 µM, first compound 0.316 µM) was 112%. For the same compound, the viability, T/C (second compound 0.316 µM, first compound 1 µM) was 112%, the viability, T/C (second compound 0.316 µM, first compound 3.16 µM) was 103% and the viability, T/C (second compound 0.316 µM, first compound 10 µM) was 86.1%. It also gave a viability, T/C [7] of 112%, a viability, T/C [8] of 101% and a viability, T/C (second compound 1 µM, first compound 0.316 µM) of 105%. The viability, T/C (second compound 1 µM, first compound 1 µM) was 111%, the viability, T/C (second compound 1 µM, first compound 3.16 µM) was 111% and the viability, T/C (second compound 1 µM, first compound 10 µM) was 86.9%. The viability, T/C [9] was 103%, the viability, T/C [10] was 106% and the viability, T/C (second compound 3.16 µM, first compound 0.316 µM) was 106%. It also gave a viability, T/C (second compound 3.16 µM, first compound 1 µM) of 115%, a viability, T/C (second compound 3.16 µM, first compound 3.16 µM) of 119% and a viability, T/C (second compound 3.16 µM, first compound 10 µM) of 87.2%. The viability, T/C [11] was 166%, the viability, T/C [12] was 178% and the viability, T/C (second compound 10 µM, first compound 0.316 µM) was 187%. It also gave a viability, T/C (second compound 10 µM, first compound 1 µM) of 202%, a viability, T/C (second compound 10 µM, first compound 3.16 µM) of 171% and a viability, T/C (second compound 10 µM, first compound 10 µM) of 88.9%.
